The source of these data is article PMC11187126, “Structure and dynamics of the pyroglutamylated RF-amide peptide QRFP receptor GPR103” (Nature Communications, 2024).

This assay has as its target T1, GPR103 E203^ECL2A (Homo sapiens, UniProt Q96P65, E203A).
T1 construct: we used human full-length QRFPR-encoding plasmids; expressed in transfected cells; host or cells: HEK293 cells, pCAGGS vector
T1 sequence (Q96P65 1-431 E203A): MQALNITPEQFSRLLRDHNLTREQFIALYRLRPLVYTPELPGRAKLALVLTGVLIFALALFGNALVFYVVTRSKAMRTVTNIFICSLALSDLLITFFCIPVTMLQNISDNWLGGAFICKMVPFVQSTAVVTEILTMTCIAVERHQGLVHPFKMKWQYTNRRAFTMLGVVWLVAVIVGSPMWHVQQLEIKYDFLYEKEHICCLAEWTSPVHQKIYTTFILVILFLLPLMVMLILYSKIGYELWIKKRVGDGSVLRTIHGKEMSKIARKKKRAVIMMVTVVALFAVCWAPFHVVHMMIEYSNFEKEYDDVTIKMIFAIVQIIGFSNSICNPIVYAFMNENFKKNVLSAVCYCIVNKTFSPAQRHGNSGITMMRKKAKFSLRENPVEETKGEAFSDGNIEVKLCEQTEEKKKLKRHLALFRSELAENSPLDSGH
As to the kind of experiment: TGFα shedding assay; Exp. level >WT (1:1). It is filed as cell-based.

Read-outs that look alike come from different tables or passages of the source. No end group written: not given here.

In the case of TSGPLGNLAEELNGYSRKKGGFSFRF-NH2 [QRFP26], the Emax runs as follows: (Exp. #1) 96.63 % WT; (Exp. #2) 100.59 % WT; (Exp. #3) 99.12 % WT; (mean, read-out: Emax) 98.8%; (n = 3, read-out: Emax) 101 ± 0.94%. Also, the half-maximal effective concentration (EC50) (n = 3) is 288 nM.
